According to ChEMBL document CHEMBL1157089, “Antitrypanosomal cyclic polyketide peroxides from the Australian marine sponge Plakortis sp” (J Nat Prod, 2010):

Columns and labels:
HEK293 [1] = experiment: Cytotoxicity against HEK293 cells after 48 hrs by alamar blue assay; assay type: cell-based; conditions: Homo sapiens, HEK293, 48 h
[2] = Selectivity ratio of IC50 for HEK293 cells to IC50 for Trypanosoma brucei brucei BS427; assay type: ADME, cell-based; conditions: human, read-out: Ratio IC50
[3] = tested on: Trypanosoma brucei brucei; experiment: Antitrypanosomal activity against Trypanosoma brucei brucei BS427 after 48 hrs by alamar blue assay; assay type: functional, organism-based; conditions: BS427, 48 h
HEK293 [4] = experiment: Cytotoxicity against HEK293 cells after at 83 uM 48 hrs by alamar blue assay; assay type: cell-based; conditions: human, hek293, 48 h

SMILES: CC[C@@H](/C=C/C(C)=O)C[C@H](C)C[C@@]1(CC)C[C@@H](CC)[C@@H](CC(=O)O)OO1
- IC50 (HEK293 [1]): 5.1 nM
- selectivity ratio [2]: 105
- IC50 [3]: 49 nM

SMILES: CC[C@H](C[C@H](C)C[C@@]1(CC)C[C@@H](CC)[C@@H](CC(=O)O)OO1)C(=O)O
- Activity (HEK293 [4]): 100%
- IC50 [3]: 940 nM

SMILES: C=C1CCC[C@@H]2[C@@H](CC[C@@]3(C)CC[C@H]([C@H](C)C(=O)O)OO3)[C@H](C)CC[C@@]12C [SIGMOSCEPTRELLIN B]
- IC50 [3]: 510 nM
